Experimental data: PubChem BioAssay AID248 (DTP/NCI, 2004)
Values joined by “and” are separate entries in the source; they are usually repeats but may differ in a detail not shown here. Equal values may be shown once. Toxic doses and inconclusive results are not listed. Cut-off read from the data, not from the text of the source: active = T/C of 150% or more; inactive = T/C below 125%.

System: L1210 leukemia ip in BDF1 mice, survival T/C
Assay: NCI In Vivo Anticancer Drug Screen. Data for tumor model L1210 Leukemia (intraperitoneal) in B6D2F1 (BDF1) mice
Settings: endpoint: mean survival time, higher = longer survival
Method in brief: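 Value reflects the ratio of survival in compound-treated mice to survival in vehicle-treated controls, with both groups carrying the same transplanted tumor.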

[1] = dose: 100.0 mg/kg/injection, schedule: Q01DX001 (ip), vehicle: carboxymethylcellulose (CMC)
[2] = dose: 200.0 mg/kg/injection, schedule: Q01DX001 (ip), vehicle: carboxymethylcellulose (CMC)
[3] = dose: 400.0 mg/kg/injection, schedule: Q01DX001 (ip), vehicle: carboxymethylcellulose (CMC)
[4] = dose: 100.0 mg/kg/injection, schedule: Q01DX009 (ip), vehicle: Klucel (hydroxypropylcellulose) (HPC)
[5] = dose: 200.0 mg/kg/injection, schedule: Q01DX009 (ip), vehicle: Klucel (hydroxypropylcellulose) (HPC)
[6] = dose: 400.0 mg/kg/injection, schedule: Q01DX009 (ip), vehicle: Klucel (hydroxypropylcellulose) (HPC)
[7] = dose: 100.0 mg/kg/injection, schedule: Q01DX009 (ip), vehicle: saline
[8] = dose: 100.0 mg/kg/injection, schedule: Q04DX003 (ip), vehicle: Klucel (hydroxypropylcellulose) (HPC)
[9] = dose: 200.0 mg/kg/injection, schedule: Q04DX003 (ip), vehicle: Klucel (hydroxypropylcellulose) (HPC)
[10] = dose: 400.0 mg/kg/injection, schedule: Q04DX003 (ip), vehicle: Klucel (hydroxypropylcellulose) (HPC)
[11] = dose: 200.0 mg/kg/injection, schedule: Q01DX009 (ip), vehicle: saline
[12] = dose: 400.0 mg/kg/injection, schedule: Q01DX009 (ip), vehicle: saline

Measured: T/C

CCCCN(CC)C(=S)S[Te](SC(=S)N(CC)CCCC)(SC(=S)N(CC)CCCC)SC(=S)N(CC)CCCC
inactive: [1] 104 % of control | [2] 101 % of control | [3] 89 % of control

O=C(Nc1ccc(Cl)c(Cl)c1)Oc1ccc(Cl)cc1C(=O)Nc1ccccc1
inactive: [4] 100 % of control | [5] 100 % of control | [6] 87 % of control

CC1(C)N=C(N)N=C(N)N1c1ccc(CC(=O)Nc2ccc(S(=O)(=O)F)cc2)cc1
inactive: dose: 0.8 mg/kg/injection, schedule: Q01DX009 (ip), vehicle: saline 95 % of control | dose: 4.0 mg/kg/injection, schedule: Q01DX009 (ip), vehicle: saline 95 % of control | dose: 20.0 mg/kg/injection, schedule: Q01DX009 (ip), vehicle: saline 97 % of control | [7] 97 % of control | dose: 500.0 mg/kg/injection, schedule: Q01DX009 (ip), vehicle: saline 94 % of control

O=C(O)c1csnn1
inactive: dose: 100.0 mg/kg/injection, schedule: Q01DX001 (ip), vehicle: saline 102 % of control | dose: 200.0 mg/kg/injection, schedule: Q01DX001 (ip), vehicle: saline 97 % of control | dose: 400.0 mg/kg/injection, schedule: Q01DX001 (ip), vehicle: saline 103 % of control

COC(=O)c1ccc2ccccc2n1
inactive: dose: 37.5 mg/kg/injection, schedule: Q04DX003 (ip), vehicle: saline 112 % of control | dose: 75.0 mg/kg/injection, schedule: Q01DX001 (ip), vehicle: saline 112 % of control | dose: 75.0 mg/kg/injection, schedule: Q04DX003 (ip), vehicle: saline 93 % of control | dose: 150.0 mg/kg/injection, schedule: Q01DX001 (ip), vehicle: saline 86 % of control | dose: 150.0 mg/kg/injection, schedule: Q04DX003 (ip), vehicle: saline 93 % of control

S=C(NCCS)Nc1ccccc1
inactive: [8] 98 % of control | [9] 105 % of control | [10] 99 % of control

C[C@@H]1CCC[C@@H](NC(=O)N(CCCl)N=O)C1
active: dose: 18.7 mg/kg/injection, schedule: Q01DX009 (ip), vehicle: Klucel (hydroxypropylcellulose) (HPC) 188 % of control | dose: 34.0 mg/kg/injection, schedule: Q01DX001 (ip), vehicle: saline with Tween-80 166 % of control | dose: 37.5 mg/kg/injection, schedule: Q01DX009 (ip), vehicle: Klucel (hydroxypropylcellulose) (HPC) 328 % of control | dose: 50.0 mg/kg/injection, schedule: Q01DX001 (ip), vehicle: saline with Tween-80 293 % of control | dose: 75.0 mg/kg/injection, schedule: Q01DX001 (ip), vehicle: saline with Tween-80 484 % of control | dose: 75.0 mg/kg/injection, schedule: Q01DX009 (ip), vehicle: Klucel (hydroxypropylcellulose) (HPC) 198 % of control | dose: 112.0 mg/kg/injection, schedule: Q01DX001 (ip), vehicle: saline with Tween-80 444 % of control | dose: 168.0 mg/kg/injection, schedule: Q01DX001 (ip), vehicle: saline with Tween-80 434 % of control
inactive: dose: 6.7 mg/kg/injection, schedule: Q01DX001 (ip), vehicle: saline with Tween-80 108 % of control | dose: 10.0 mg/kg/injection, schedule: Q01DX001 (ip), vehicle: saline with Tween-80 113 % of control | dose: 15.0 mg/kg/injection, schedule: Q01DX001 (ip), vehicle: saline with Tween-80 124 % of control | dose: 150.0 mg/kg/injection, schedule: Q01DX009 (ip), vehicle: Klucel (hydroxypropylcellulose) (HPC) 106 % of control

NN=C(NN)NN
inactive: dose: 100.0 mg/kg/injection, schedule: Q04DX002 (ip), vehicle: saline 98 % of control | dose: 200.0 mg/kg/injection, schedule: Q04DX002 (ip), vehicle: saline 104 % of control | dose: 400.0 mg/kg/injection, schedule: Q04DX002 (ip), vehicle: saline 104 % of control

CCOC(=O)CC(O)(c1ccc(OC)cc1)c1ccc(OC)cc1
inactive: [1] 92 % of control | [2] 97 % of control | [3] 95 % of control

COc1cc(C(=O)Nc2ccc(F)cc2)cc(OC)c1OC
inactive: [4] 92 % of control | [5] 97 % of control | [6] 94 % of control

NC1CCS(=O)(=O)CC1
inactive: dose: 100.0 mg/kg/injection, schedule: Q01DX001 (ip), vehicle: water 93 % of control | dose: 200.0 mg/kg/injection, schedule: Q01DX001 (ip), vehicle: water 101 % of control | dose: 400.0 mg/kg/injection, schedule: Q01DX001 (ip), vehicle: water 104 % of control

O=C(O)C1CSC(c2ccccc2)N1 (stereo not given)
inactive: dose: 100.0 mg/kg/injection, schedule: Q01DX001 (ip), vehicle: other 105 % of control | dose: 176.0 mg/kg/injection, schedule: Q01DX001 (ip), vehicle: other 109 % of control and 91 % of control | dose: 200.0 mg/kg/injection, schedule: Q01DX001 (ip), vehicle: other 102 % of control | dose: 267.0 mg/kg/injection, schedule: Q01DX001 (ip), vehicle: other 96 % of control and 90 % of control | dose: 600.0 mg/kg/injection, schedule: Q01DX001 (ip), vehicle: other 101 % of control and 90 % of control

O=C1NOCC1N=Cc1ccccc1O (stereo not given)
inactive: [8] 102 % of control | [9] 98 % of control | [10] 101 % of control

O=C1N(c2ccccc2)P(Cl)(Cl)(Cl)N1c1ccccc1
inactive: dose: 100.0 mg/kg/injection, schedule: Q04DX002 (ip), vehicle: Klucel (hydroxypropylcellulose) (HPC) 93 % of control | dose: 200.0 mg/kg/injection, schedule: Q04DX002 (ip), vehicle: Klucel (hydroxypropylcellulose) (HPC) 110 % of control | dose: 400.0 mg/kg/injection, schedule: Q04DX002 (ip), vehicle: Klucel (hydroxypropylcellulose) (HPC) 93 % of control

COC(=O)C1CC2C(Cl)=C(Cl)C1(Cl)C2(Cl)Cl (stereo not given)
inactive: [7] 107 % of control | [11] 123 % of control | [12] 102 % of control

O=[N+]([O-])c1ccc(OCCCBr)c(Cl)c1
inactive: [7] 103 % of control | [11] 108 % of control | [12] 120 % of control

CCc1ccc(NC2=C(OC)C(=O)C(Nc3ccc(CC)cc3)=C(OC)C2=O)cc1
inactive: dose: 50.0 mg/kg/injection, schedule: Q01DX001 (ip), vehicle: carboxymethylcellulose (CMC) 98 % of control | [1] 93 % of control | [2] 98 % of control | [3] 90 % of control

CC(C)CCCC(C)C1CCC2C3CC=C4CC(=O)CCC4(C)C3CCC12C (stereo not given)
inactive: dose: 100.0 mg/kg/injection, schedule: Q04DX002 (ip), vehicle: saline with Tween-80 98 % of control | dose: 400.0 mg/kg/injection, schedule: Q04DX002 (ip), vehicle: saline with Tween-80 88 % of control

O=S(=O)(Nc1ccc2ccccc2c1)c1ccccc1
inactive: dose: 100.0 mg/kg/injection, schedule: Q01DX001 (ip), vehicle: saline with Tween-80 103 % of control | dose: 200.0 mg/kg/injection, schedule: Q01DX001 (ip), vehicle: saline with Tween-80 97 % of control | dose: 400.0 mg/kg/injection, schedule: Q01DX001 (ip), vehicle: saline with Tween-80 97 % of control

c1ccc([B-](c2ccccc2)([C+]2CCCCC2)N2CCCCC2)cc1
inactive: dose: 75.0 mg/kg/injection, schedule: Q01DX001 (ip), vehicle: carboxymethylcellulose (CMC) 104 % of control | dose: 150.0 mg/kg/injection, schedule: Q01DX001 (ip), vehicle: carboxymethylcellulose (CMC) 100 % of control

CCCCCCCCCC[Se]C#N
inactive: dose: 5.0 mg/kg/injection, schedule: Q01DX001 (ip), vehicle: saline 112 % of control | dose: 10.0 mg/kg/injection, schedule: Q01DX001 (ip), vehicle: saline 114 % of control

O=C(O)CCOC(C[N+](=O)[O-])C(Cl)(Cl)Cl (stereo not given)
inactive: [4] 96 % of control | [5] 97 % of control | [6] 94 % of control

NC(=O)c1ncn[nH]1
inactive: dose: 50.0 mg/kg/injection, schedule: Q01DX009 (ip), vehicle: saline with Tween-80 113 % of control | dose: 50.0 mg/kg/injection, schedule: Q04DX003 (ip), vehicle: saline with Tween-80 104 % of control | dose: 100.0 mg/kg/injection, schedule: Q01DX009 (ip), vehicle: saline with Tween-80 108 % of control | dose: 100.0 mg/kg/injection, schedule: Q04DX003 (ip), vehicle: saline with Tween-80 110 % of control | dose: 200.0 mg/kg/injection, schedule: Q01DX009 (ip), vehicle: saline with Tween-80 120 % of control | dose: 200.0 mg/kg/injection, schedule: Q04DX003 (ip), vehicle: saline with Tween-80 106 % of control
